{"source": "patent US20230233697A1", "about": "“CYTOTOXIC BENZODIAZEPINE DERIVATIVES” (priority 2014, published 2023)", "origin": "cited, not measured here", "details": "Phase I clinical evaluation; cited from earlier work", "data": [{"smiles": "C=C1C[C@H]2C=Nc3cc(OCCCOc4cc5c(cc4OC)C(=O)N4CC(=C)C[C@H]4C=N5)c(OC)cc3C(=O)N2C1", "note": "[SJG-136]", "values": [{"measurement": "maximum tolerated dose", "result": 45, "unit": "μg/m^2"}]}]}
